Several values for one entry are separate records, joined by “and”; a condition that tells them apart may be missing. Equal entries are not always repeated. Where two headings read alike, the source gives them in different places.
How the values were obtained:
Type in all cases: cell-based
Fusarium graminearum = test system: Fusarium graminearum
Gäumannomyces graminis = assay: Fungal growth assay, Control of Gaumannomyces graminis (PDB, 96-well, 24° C., photometric, 72 hrs)
Rhizoctonia solani = assay: Fungal growth assay, Control of Rhizoctonia solani (PDB, 96-well, 24° C., photometric, 48 hrs)
Pyrenophora graminea = assay: Fungal growth assay, Control of Pyrenophora graminea (PDB, 96-well, 24° C., photometric, 72 hrs)
Ustilago nuda = assay: Fungal growth assay, Control of Ustilago nuda (PDB, 96-well, 24° C., photometric, 48 hrs)
Microdochium nivale = assay: Fungal growth assay, Control of Microdochium nivale (PDB, 96-well, 24° C., photometric, 72 hrs)
Septoria tritici = assay: Fungal growth assay, Control of Septoria tritici (PDB, 96-well, 24° C., photometric, 72 hrs)

SMILES: Cn1cc(C(=O)Nc2ccccc2[C@@H]2C[C@H]2C2CC2)c(C(F)F)n1 (racemic) [Racemic cpd Ia]
- Observed control in % (% Cobs) (Fusarium graminearum; 0.0001 ppm): 0%
- Observed control in % (% Cobs) (Fusarium graminearum; 0.0008 ppm): 0%
- Observed control in % (% Cobs) (Fusarium graminearum; 0.007 ppm): 0%
- Observed control in % (% Cobs) (Fusarium graminearum; 0.0074 ppm): 0%
- Observed control in % (% Cobs) (Fusarium graminearum; 0.022 ppm): 0%
- Observed control in % (% Cobs) (Fusarium graminearum; 0.0667 ppm): 7%
- Observed control in % (% Cobs) (Fusarium graminearum; 0.067 ppm): 4% and 10%
- Observed control in % (% Cobs) (Fusarium graminearum; 0.2 ppm): 7%
- Observed control in % (% Cobs) (Fusarium graminearum; 0.6 ppm): 12%
- Observed control in % (% Cobs) (Fusarium graminearum; 1.8 ppm): 18%
- Observed control in % (% Cobs) (Gäumannomyces graminis; 0.0003 ppm): 0%
- Observed control in % (% Cobs) (Gäumannomyces graminis; 0.0008 ppm): 0%
- Observed control in % (% Cobs) (Gäumannomyces graminis; 0.002 ppm): 2%
- Observed control in % (% Cobs) (Gäumannomyces graminis; 0.007 ppm): 0%
- Observed control in % (% Cobs) (Gäumannomyces graminis; 0.2 ppm): 0%
- Observed control in % (% Cobs) (Rhizoctonia solani; 0.0001 ppm): 3%
- Observed control in % (% Cobs) (Rhizoctonia solani; 0.0008 ppm): 8%
- Observed control in % (% Cobs) (Rhizoctonia solani; 0.0025 ppm): 4%
- Observed control in % (% Cobs) (Rhizoctonia solani; 0.007 ppm): 4%
- Observed control in % (% Cobs) (Rhizoctonia solani; 0.0074 ppm): 0%
- Observed control in % (% Cobs) (Pyrenophora graminea; 0.0003 ppm): 1%
- Observed control in % (% Cobs) (Pyrenophora graminea; 0.0008 ppm): 6%
- Observed control in % (% Cobs) (Pyrenophora graminea; 0.002 ppm): 0%
- Observed control in % (% Cobs) (Pyrenophora graminea; 0.0074 ppm): 4%
- Observed control in % (% Cobs) (Pyrenophora graminea; 0.022 ppm): 0%
- Observed control in % (% Cobs) (Pyrenophora graminea; 0.0667 ppm): 20%
- Observed control in % (% Cobs) (Pyrenophora graminea; 0.067 ppm): 1%
- Observed control in % (% Cobs) (Pyrenophora graminea; 1.8 ppm): 11% and 1% and 6%
- Observed control in % (% Cobs) (Ustilago nuda; 0.0001 ppm): 5%
- Observed control in % (% Cobs) (Ustilago nuda; 0.0003 ppm): 0%
- Observed control in % (% Cobs) (Ustilago nuda; 0.002 ppm): 0%
- Observed control in % (% Cobs) (Ustilago nuda; 0.007 ppm): 15%
- Observed control in % (% Cobs) (Microdochium nivale; 0.0003 ppm): 0%
- Observed control in % (% Cobs) (Microdochium nivale; 0.0008 ppm): 0%
- Observed control in % (% Cobs) (Microdochium nivale; 0.002 ppm): 0%
- Observed control in % (% Cobs) (Microdochium nivale; 0.0025 ppm): 1% and 0%
- Observed control in % (% Cobs) (Microdochium nivale; 0.007 ppm): 2%
- Observed control in % (% Cobs) (Microdochium nivale; 0.0074 ppm): 0%
- Observed control in % (% Cobs) (Microdochium nivale; 0.067 ppm): 0% and 4% and 2%
- Observed control in % (% Cobs) (Septoria tritici; 0.0001 ppm): 0%
- Observed control in % (% Cobs) (Septoria tritici; 0.0003 ppm): 2% and 1%
- Observed control in % (% Cobs) (Septoria tritici; 0.007 ppm): 0%
- Observed control in % (% Cobs) (Septoria tritici; 0.0074 ppm): 0%
- Observed control in % (% Cobs) (Septoria tritici; 0.022 ppm): 0%
- Observed control in % (% Cobs) (Septoria tritici; 0.067 ppm): 4%

SMILES: CO/C=C(/C(=O)OC)c1ccccc1Oc1cc(Oc2ccccc2C#N)ncn1 [Azoxystrobin, reference compound]
- Observed control in % (% Cobs) (Gäumannomyces graminis; 0.002 ppm): 11%

SMILES: CC(C1CC1)C(O)(Cn1cncn1)c1ccc(Cl)cc1 (centres unmarked) [Cyproconazole, reference compound]
- Observed control in % (% Cobs) (Fusarium graminearum; 0.002 ppm): 5%
- Observed control in % (% Cobs) (Fusarium graminearum; 0.022 ppm): 1%
- Observed control in % (% Cobs) (Fusarium graminearum; 0.2 ppm): 0%
- Observed control in % (% Cobs) (Pyrenophora graminea; 0.022 ppm): 4%
- Observed control in % (% Cobs) (Pyrenophora graminea; 0.2 ppm): 19%
- Observed control in % (% Cobs) (Pyrenophora graminea; 0.6 ppm): 28%
- Observed control in % (% Cobs) (Microdochium nivale; 0.2 ppm): 0%
- Observed control in % (% Cobs) (Microdochium nivale; 0.6 ppm): 0%
- Observed control in % (% Cobs) (Microdochium nivale; 1.8 ppm): 9%

SMILES: CC1COC(Cn2cncn2)(c2ccc(Oc3ccc(Cl)cc3)cc2Cl)O1 (centres unmarked) [Difenoconazole, reference compound]
- Observed control in % (% Cobs) (Pyrenophora graminea; 0.007 ppm): 0%
- Observed control in % (% Cobs) (Pyrenophora graminea; 0.022 ppm): 15%
- Observed control in % (% Cobs) (Pyrenophora graminea; 0.067 ppm): 23%
- Observed control in % (% Cobs) (Pyrenophora graminea; 0.2 ppm): 51%
- Observed control in % (% Cobs) (Ustilago nuda; 0.002 ppm): 2%
- Observed control in % (% Cobs) (Microdochium nivale; 0.007 ppm): 4%
- Observed control in % (% Cobs) (Microdochium nivale; 0.2 ppm): 1%
- Observed control in % (% Cobs) (Microdochium nivale; 0.6 ppm): 13%

SMILES: N#Cc1c[nH]cc1-c1cccc2c1OC(F)(F)O2 [Fludioxonil, reference compound]
- Observed control in % (% Cobs) (Fusarium graminearum; 0.007 ppm): 1%
- Observed control in % (% Cobs) (Fusarium graminearum; 0.022 ppm): 6%
- Observed control in % (% Cobs) (Fusarium graminearum; 0.067 ppm): 39%
- Observed control in % (% Cobs) (Rhizoctonia solani; 0.002 ppm): 0%
- Observed control in % (% Cobs) (Rhizoctonia solani; 0.007 ppm): 6%
- Observed control in % (% Cobs) (Rhizoctonia solani; 0.022 ppm): 0%
- Observed control in % (% Cobs) (Rhizoctonia solani; 0.067 ppm): 0%
- Observed control in % (% Cobs) (Pyrenophora graminea; 0.002 ppm): 7%
- Observed control in % (% Cobs) (Ustilago nuda; 0.002 ppm): 0%
- Observed control in % (% Cobs) (Ustilago nuda; 0.007 ppm): 0%
- Observed control in % (% Cobs) (Ustilago nuda; 0.022 ppm): 21%
- Observed control in % (% Cobs) (Microdochium nivale; 0.002 ppm): 0%
- Observed control in % (% Cobs) (Microdochium nivale; 0.007 ppm): 0%
- Observed control in % (% Cobs) (Microdochium nivale; 0.022 ppm): 0%
- Observed control in % (% Cobs) (Microdochium nivale; 0.067 ppm): 3%
- Observed control in % (% Cobs) (Septoria tritici; 0.002 ppm): 0%
- Observed control in % (% Cobs) (Septoria tritici; 0.067 ppm): 9%

SMILES: c1ccc2[nH]c(-c3cscn3)nc2c1 [Thiabendazole, reference compound]
- Observed control in % (% Cobs) (Fusarium graminearum; 0.0025 ppm): 1%
- Observed control in % (% Cobs) (Fusarium graminearum; 0.0223 ppm): 0%
- Observed control in % (% Cobs) (Rhizoctonia solani; 0.0074 ppm): 0%
- Observed control in % (% Cobs) (Rhizoctonia solani; 0.023 ppm): 7%
- Observed control in % (% Cobs) (Rhizoctonia solani; 0.2 ppm): 12%
- Observed control in % (% Cobs) (Rhizoctonia solani; 0.6 ppm): 13%
- Observed control in % (% Cobs) (Pyrenophora graminea; 0.0025 ppm): 0%
- Observed control in % (% Cobs) (Pyrenophora graminea; 0.0223 ppm): 0%
- Observed control in % (% Cobs) (Septoria tritici; 0.0223 ppm): 0%
- Observed control in % (% Cobs) (Septoria tritici; 0.067 ppm): 0%
- Observed control in % (% Cobs) (Septoria tritici; 0.6 ppm): 3%
- Observed control in % (% Cobs) (Septoria tritici; 1.8 ppm): 1%
